What was measured:
LRRK2 G2019S = target: T1, LRRK2 G2019S (Homo sapiens, UniProt Q5S007, G2019S); test: LRRK2 Kinase Activity Assay (LanthaScreen TR-FRET), G2019S; assay type: biochemical; conditions: recombinant G2019S-LRRK2, 25 μM ATP, 400 nM LRRKtide, 60 min; class symbols
T1 construct: purchased Life Technologies PV4881
Method: (§1) LRRK2 kinase activity was measured using a LanthaScreen™ Kinase Activity Assay from ThermoFisher Scientific. Recombinant wild type or G2019S-LRRK2 protein (Life Technologies, PR8604B or PV4881, respectively), was incubated with a fluorescein-labeled peptide substrate called LRRKtide that is based upon ezrin/radixin/moesin (ERM) (Life Technologies, PV4901) in the presence of ATP and serially diluted compound. […] Compound-dependent inhibition of the TR-FRET signal was used to generate a concentration-response curve for IC50 determination.
(§2) After 60 min incubation at room temperature, the reaction was stopped by addition of 10 μL of 2×stop solution containing a final concentration of 2 nM anti-pERM antibody and 10 mM EDTA.

LRRK2 WT = target: T2, LRRK2 WT (Homo sapiens, UniProt Q5S007); test: LRRK2 Kinase Activity Assay (LanthaScreen TR-FRET), wild type; assay type: biochemical; conditions: recombinant wild type LRRK2, 25 μM ATP, 400 nM LRRKtide, 60 min; class symbols
T2 construct: purchased Life Technologies PR8604B
T2 sequence (Q5S007 whole entry): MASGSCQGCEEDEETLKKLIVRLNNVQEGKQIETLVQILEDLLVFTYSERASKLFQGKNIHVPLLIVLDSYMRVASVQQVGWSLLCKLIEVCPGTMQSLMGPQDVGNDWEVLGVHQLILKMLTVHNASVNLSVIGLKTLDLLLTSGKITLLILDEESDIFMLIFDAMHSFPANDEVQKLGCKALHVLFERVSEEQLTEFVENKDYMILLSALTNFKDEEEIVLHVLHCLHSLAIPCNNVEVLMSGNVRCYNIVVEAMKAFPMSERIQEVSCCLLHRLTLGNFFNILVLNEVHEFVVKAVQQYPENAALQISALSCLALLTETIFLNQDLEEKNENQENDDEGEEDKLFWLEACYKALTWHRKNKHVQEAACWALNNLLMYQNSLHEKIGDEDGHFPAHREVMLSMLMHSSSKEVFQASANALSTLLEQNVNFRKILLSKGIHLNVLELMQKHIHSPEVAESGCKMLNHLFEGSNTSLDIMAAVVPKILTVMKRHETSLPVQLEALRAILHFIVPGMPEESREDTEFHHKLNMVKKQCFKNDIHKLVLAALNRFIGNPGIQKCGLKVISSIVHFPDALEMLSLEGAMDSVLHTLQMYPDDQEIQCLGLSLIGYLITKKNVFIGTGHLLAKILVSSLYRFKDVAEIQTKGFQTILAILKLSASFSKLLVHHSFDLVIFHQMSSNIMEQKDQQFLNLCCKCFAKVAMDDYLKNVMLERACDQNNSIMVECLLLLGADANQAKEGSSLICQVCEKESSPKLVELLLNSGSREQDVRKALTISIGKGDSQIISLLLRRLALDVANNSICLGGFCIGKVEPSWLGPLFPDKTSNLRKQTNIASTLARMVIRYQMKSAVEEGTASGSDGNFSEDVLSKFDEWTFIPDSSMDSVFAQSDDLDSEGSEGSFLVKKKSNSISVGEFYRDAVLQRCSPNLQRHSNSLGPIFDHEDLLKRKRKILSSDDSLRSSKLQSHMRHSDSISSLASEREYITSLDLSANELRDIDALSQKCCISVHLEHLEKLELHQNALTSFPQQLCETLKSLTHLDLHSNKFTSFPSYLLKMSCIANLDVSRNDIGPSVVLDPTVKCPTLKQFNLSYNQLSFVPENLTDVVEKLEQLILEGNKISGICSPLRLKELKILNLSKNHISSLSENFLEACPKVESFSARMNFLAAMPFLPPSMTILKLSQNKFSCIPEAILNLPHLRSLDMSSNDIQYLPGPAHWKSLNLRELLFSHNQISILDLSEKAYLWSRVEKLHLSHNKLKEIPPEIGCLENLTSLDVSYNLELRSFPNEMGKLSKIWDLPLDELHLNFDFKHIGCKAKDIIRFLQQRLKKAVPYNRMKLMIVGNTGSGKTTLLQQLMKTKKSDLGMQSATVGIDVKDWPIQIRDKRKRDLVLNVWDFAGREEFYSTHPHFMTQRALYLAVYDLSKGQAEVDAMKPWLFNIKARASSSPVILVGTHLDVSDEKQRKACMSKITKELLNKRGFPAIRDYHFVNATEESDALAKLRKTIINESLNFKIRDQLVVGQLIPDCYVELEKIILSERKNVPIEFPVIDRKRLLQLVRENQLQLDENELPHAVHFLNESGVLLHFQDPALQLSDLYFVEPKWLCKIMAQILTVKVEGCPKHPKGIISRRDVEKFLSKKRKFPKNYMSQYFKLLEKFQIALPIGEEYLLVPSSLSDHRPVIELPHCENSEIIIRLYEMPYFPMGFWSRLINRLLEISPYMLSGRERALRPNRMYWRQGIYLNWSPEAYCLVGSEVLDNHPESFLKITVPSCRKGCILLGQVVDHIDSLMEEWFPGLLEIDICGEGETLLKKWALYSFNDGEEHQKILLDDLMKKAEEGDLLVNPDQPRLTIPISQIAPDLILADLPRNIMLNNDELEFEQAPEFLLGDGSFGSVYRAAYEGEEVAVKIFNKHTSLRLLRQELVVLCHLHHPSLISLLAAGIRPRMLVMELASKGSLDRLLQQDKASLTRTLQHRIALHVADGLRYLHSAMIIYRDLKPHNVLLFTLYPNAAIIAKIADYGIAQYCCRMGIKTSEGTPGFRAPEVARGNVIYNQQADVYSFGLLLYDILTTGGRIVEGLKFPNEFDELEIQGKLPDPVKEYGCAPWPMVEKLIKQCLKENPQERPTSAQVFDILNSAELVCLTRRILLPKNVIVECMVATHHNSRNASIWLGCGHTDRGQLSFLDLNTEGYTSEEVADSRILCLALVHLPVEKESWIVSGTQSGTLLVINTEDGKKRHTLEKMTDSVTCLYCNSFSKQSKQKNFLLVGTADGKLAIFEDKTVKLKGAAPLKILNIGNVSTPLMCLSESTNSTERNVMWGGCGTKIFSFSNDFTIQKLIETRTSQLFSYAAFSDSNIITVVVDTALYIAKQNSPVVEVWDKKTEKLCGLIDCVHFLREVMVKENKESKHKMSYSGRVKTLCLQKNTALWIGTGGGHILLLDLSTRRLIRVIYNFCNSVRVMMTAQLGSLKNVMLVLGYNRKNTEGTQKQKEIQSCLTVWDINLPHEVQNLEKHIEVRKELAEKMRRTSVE
Method: as §1, §2

T1 sequence (Q5S007 whole entry G2019S): as the sequence (Q5S007 whole entry) above, with G2019S counted along it

SMILES	IC50 (LRRK2 G2019S) [µM]	IC50 (LRRK2 WT) [µM]
C[C@H]1CCc2cc(C#N)ccc2[C@H]1Oc1ccc2[nH]nc(-c3cnco3)c2c1 (single isomer, unassigned) [175, enantiomer 1, cis-6-Methyl-5-[[3-(1,3-oxazol-5-yl)-1H-indazol-5-yl]oxy]-5,6,7,8-tetrahydronaphthalene-2-carbonitrile]	< 0.1	0.1 to 1
N#Cc1cc2c(cn1)[C@H](Oc1ccc3[nH]nc(-c4cnco4)c3c1)CCC2 (single isomer, unassigned) [Example 122, enantiomer 2, 8-((3-(Oxazol-5-yl)-1H-indazol-5-yl)oxy)-5,6,7,8-tetrahydroisoquinoline-3-carbonitrile]	–	< 0.1
COc1cc(-c2n[nH]c3ccc(O[C@H]4CCCc5cc(C#N)cnc54)cc23)ccn1 (single isomer, unassigned) [Example 123, enantiomer 2, 8-((3-(2-Methoxypyridin-4-yl)-1H-indazol-5-yl)oxy)-5,6,7,8-tetrahydroquinoline-3-carbonitrile]	–	< 0.1
N#Cc1ccc2c(c1)CC[C@@H]2Oc1ccc2[nH]nc(C3CC3)c2c1 (single isomer, unassigned) [Example 124, enantiomer 2, 1-((3-Cyclopropyl-1H-indazol-5-yl)oxy)-2,3-dihydro-1H-indene-5-carbonitrile]	0.1 to 1	–
Cc1c(C#N)ccc2c1CC[C@@H]2Nc1ccc2[nH]nc(I)c2c1 (single isomer, unassigned) [Example 127, enantiomer 2, 1-((3-Iodo-1H-indazol-5-yl)amino)-4-methyl-2,3-dihydro-1H-indene-5-carbonitrile]	–	0.1 to 1
Cc1n[nH]c2ccc(N[C@H]3CCc4c(C#N)cccc43)cc12 (single isomer, unassigned) [Example 129, enantiomer 2, 1-((3-Methyl-1H-indazol-5-yl)amino)-2,3-dihydro-1H-indene-4-carbonitrile]	–	0.1 to 1
Cc1cc(C#N)cc2c1[C@@H](Nc1ccc3[nH]nc(-c4cnco4)c3c1)CC2 (single isomer, unassigned) [Example 131, enantiomer 2, 7-Methyl-1-((3-(oxazol-5-yl)-1H-indazol-5-yl)amino)-2,3-dihydro-1H-indene-5-carbonitrile]	–	< 0.1
N#Cc1cc(F)c2c(c1)CC[C@H]2Nc1ccc2[nH]nc(-c3cnco3)c2c1 (single isomer, unassigned) [Example 132, enantiomer 2, 5-((5-Cyano-7-fluoro-2,3-dihydro-1H-inden-1-yl)amino)-3-(oxazol-5-yl)-1H-indazol-2-ium]	–	< 0.1
N#Cc1cnc2c(c1)CCC[C@@H]2Oc1ccc2[nH]nc(C3CC3)c2c1 (single isomer, unassigned) [Example 136, enantiomer 2, 8-((3-Cyclopropyl-1H-indazol-5-yl)oxy)-5,6,7,8-tetrahydroquinoline-3-carbonitrile]	0.1 to 1	–
N#Cc1cnc2c(c1)CCC[C@@H]2Oc1ccc2[nH]nc(-c3cnn(C(F)F)c3)c2c1 (single isomer, unassigned) [Example 141, enantiomer 2, 8-((3-(1-(Difluoromethyl)-1H-pyrazol-4-yl)-1H-indazol-5-yl)oxy)-5,6,7,8-tetrahydroquinoline-3-carbonitrile]	–	< 0.1
N#Cc1cnc2c(c1)CCC[C@@H]2Nc1ccc2[nH]nc(-c3cncs3)c2c1 (single isomer, unassigned) [Example 142, enantiomer 2, 8-((3-(Thiazol-5-yl)-1H-indazol-5-yl)amino)-5,6,7,8-tetrahydroquinoline-3-carbonitrile]	–	< 0.1
N#Cc1ccc2c(c1Cl)CCC[C@@H]2Nc1ccc2[nH]nc(-c3cnco3)c2c1 (single isomer, unassigned) [Example 143, enantiomer 2, 1-Chloro-5-((3-(oxazol-5-yl)-1H-indazol-5-yl)amino)-5,6,7,8-tetrahydronaphthalene-2-carbonitrile]	–	< 0.1
N#Cc1cnc2c(c1C(F)(F)F)CCC[C@@H]2Nc1ccc2[nH]nc(-c3cnco3)c2c1 (single isomer, unassigned) [Example 145, enantiomer 2, 8-((3-(Oxazol-5-yl)-1H-indazol-5-yl)amino)-4-(trifluoromethyl)-5,6,7,8-tetrahydroquinoline-3-carbonitrile]	–	< 0.1
COc1c(C#N)cnc2c1CCC[C@@H]2Nc1ccc2[nH]nc(-c3cnco3)c2c1 (single isomer, unassigned) [Example 146, enantiomer 2, 4-Methoxy-8-((3-(oxazol-5-yl)-1H-indazol-5-yl)amino)-5,6,7,8-tetrahydroquinoline-3-carbonitrile]	–	< 0.1
N#Cc1ccc2c(c1F)CC(F)(F)[C@@H]2Nc1ccc2[nH]nc(-c3cnco3)c2c1 (single isomer, unassigned) [Example 151, enantiomer 2, 2,2,4-Trifluoro-1-((3-(oxazol-5-yl)-1H-indazol-5-yl)amino)-2,3-dihydro-1H-indene-5-carbonitrile]	–	< 0.1
N#Cc1ccc2c(c1)CCCC2Nc1ccc2[nH]nc(C(F)(F)F)c2c1 (single isomer, unassigned) [Example 153, enantiomer 2, 5-((3-(Trifluoromethyl)-1H-indazol-5-yl)amino)-5,6,7,8-tetrahydronaphthalene-2-carbonitrile]	1 to 10	–
COc1c(C#N)cnc2c1CC[C@@H]2Nc1ccc2[nH]nc(-c3cnco3)c2c1 (single isomer, unassigned) [Example 154, enantiomer 1, 4-Methoxy-7-((3-(oxazol-5-yl)-1H-indazol-5-yl)amino)-6,7-dihydro-5H-cyclopenta[b]pyridine-3-carbonitrile]	–	0.1 to 1
Cc1ncc(-c2n[nH]c3ccc(N[C@@H]4c5ccc(C#N)cc5CC4(F)F)cc23)o1 (single isomer, unassigned) [Example 155, enantiomer 2, 2,2-Difluoro-1-((3-(2-methyloxazol-5-yl)-1H-indazol-5-yl)amino)-2,3-dihydro-1H-indene-5-carbonitrile]	–	< 0.1
Cc1ncc(-c2n[nH]c3ccc(O[C@H]4CCc5c4ccc(C#N)c5F)cc23)o1 (single isomer, unassigned) [Example 156, enantiomer 2, 4-Fluoro-1-((3-(2-methyloxazol-5-yl)-1H-indazol-5-yl)oxy)-2,3-dihydro-1H-indene-5-carbonitrile]	–	< 0.1
Cc1cc(-c2n[nH]c3ccc(N[C@H]4CCCc5cc(C#N)cnc54)cc23)sn1 (single isomer, unassigned) [Example 158, enantiomer 2, 8-((3-(3-Methylisothiazol-5-yl)-1H-indazol-5-yl)amino)-5,6,7,8-tetrahydroquinoline-3-carbonitrile]	–	< 0.1
Cc1ncc(-c2n[nH]c3ccc(N[C@H]4CCCc5cc(C#N)c(C)nc54)cc23)o1 (single isomer, unassigned) [Example 159, enantiomer 2, 2-Methyl-8-((3-(2-methyloxazol-5-yl)-1H-indazol-5-yl)amino)-5,6,7,8-tetrahydroquinoline-3-carbonitrile]	–	< 0.1
Cc1ncc(-c2n[nH]c3ccc(O[C@H]4CCc5cc(C#N)c(F)cc54)cc23)o1 (single isomer, unassigned) [Example 160, enantiomer 2, 6-Fluoro-1-((3-(2-methyloxazol-5-yl)-1H-indazol-5-yl)oxy)-2,3-dihydro-1H-indene-5-carbonitrile]	–	< 0.1
N#Cc1cnc2c(n1)CCC[C@@H]2Oc1ccc2[nH]nc(-c3cnco3)c2c1 (single isomer, unassigned) [Example 163, enantiomer 2, 5-[[3-(1,3-Oxazol-5-yl)-1H-indazol-5-yl]oxy]-5,6,7,8-tetrahydroquinoxaline-2-carbonitrile]	–	< 0.1
Cc1nc2c(c(C)c1C#N)CCC[C@@H]2Nc1ccc2[nH]nc(-c3cnco3)c2c1 (single isomer, unassigned) [Example 164, enantiomer 2, 2,4-Dimethyl-8-[[3-(1,3-oxazol-5-yl)-1H-indazol-5-yl]amino]-5,6,7,8-tetrahydroquinoline-3-carbonitrile]	–	< 0.1
COc1nc2c(c(C)c1C#N)CCC[C@@H]2Nc1ccc2[nH]nc(-c3cnco3)c2c1 (single isomer, unassigned) [Example 165, enantiomer 2, 2-Methoxy-4-methyl-8-[[3-(1,3-oxazol-5-yl)-1H-indazol-5-yl]amino]-5,6,7,8-tetrahydroquinoline-3-carbonitrile]	–	< 0.1
Cc1c(C#N)c(Cl)nc2c1CC[C@@H]2Oc1ccc2[nH]nc(-c3cnco3)c2c1 (single isomer, unassigned) [Example 166, enantiomer 2, 2-Chloro-4-methyl-7-[[3-(1,3-oxazol-5-yl)-1H-indazol-5-yl]oxy]-6,7-dihydro-5H-cyclopenta[b]pyridine-3-carbonitrile]	–	< 0.1
N#Cc1c(F)cc2c(c1F)CC[C@@H]2Oc1ccc2[nH]nc(-c3cnco3)c2c1 (single isomer, unassigned) [Example 167, enantiomer 2, 4,6-Difluoro-1-[[3-(1,3-oxazol-5-yl)-1H-indazol-5-yl]oxy]-2,3-dihydro-1H-indene-5-carbonitrile]	–	< 0.1
N#Cc1cc2c(nc1Cl)[C@@H](Oc1ccc3[nH]nc(-c4cnco4)c3c1)CC2 (single isomer, unassigned) [Example 171, enantiomer 2, 2-Chloro-7-[[3-(1,3-oxazol-5-yl)-1H-indazol-5-yl]oxy]-6,7-dihydro-5H-cyclopenta[b]pyridine-3-carbonitrile]	–	< 0.1

— patent US20230148214A1, “INDAZOLES AND AZAINDAZOLES AS LRRK2 INHIBITORS” (ESCAPE Bio, Inc., priority 2020, published 2023)
